US20070010477A1, “Acyl homoserine lactones for inhibition of cell growth” (priority 2005, published 2007)

What was measured:
[1] = test system: TS; assay: Western blot of TS protein down-regulation in H630 cells; format: cell-based, human; conditions: for down-regulation of TS protein (activity in words): 18-20 hours after addition
Method: Conventional techniques were used to propagate and maintain the H630 and H630-1 cell lines (see, for example Dolnick, et al. (2003) Cancer Biology & Therapy, 2: 364-369; Stephanie, et al. (2001) In: Proceedings AACR, New Orleans, La., pp. 493). For the investigation of effects on TS expression, cells were extracted at 18-20 hours after the addition of AHLs. For Western blot analysis, proteins were extracted and Western blotting was performed by standard methods using blots blocked with 5% nonfat dried milk dissolved in 10 mM Tris-HCl, pH 8.0, 150 mM sodium chloride, 0.05% Tween-20. The blots were probed using either monoclonal (4D5E11) or polyclonal antibodies to TS and then probed for α-tubulin (monoclonal antibody B-5-1-2, Sigma Biochemicals) to confirm equivalent protein loading. The same blots were successively probed with anti-rTSβ or anti-TS, and finally anti-tubulin. After probing for each protein, the blots were stripped by incubation in 8 M guanidine HCl. Detection of rTS protein was performed with mouse monoclonal antibody D3, prepared against recombinant rTSβ protein. All Western blots were detected using the horseradish peroxidase-based West Pico Dura chemiluminescent substrate (Pierce) and horseradish peroxidase-coupled F(ab′)2 fragments (Jackson ImmunoResearch Laboratories, West Grove, Pa.) as secondary antibodies
These AHLs were synthesized as described previously (Chhabra, et al., 1993, J. Antibiotics 46, 441-454). For studies with the H630-1 cell line, AHLs were either dissolved in RPMI 1640 (hydroxy-butanoyl-, butanoyl-, 3-(oxo)-hexanoyl-homoserine lactones) or in dimethyl sulfoxide (DMSO) (hexanoyl-homoserine lactones) and added to mid-log H630 cells in RPMI1640 containing 10 μM methionine and 1× ITS+ culture supplement (BD Bioscience) in place of serum at the indicated concentrations. […] After 18 hr, the medium was removed, the cells washed twice and protein extracted. The extracted proteins were separated on denaturing polyacrylamide gels and probed for rTS, TS and tubulin using specific antibodies.
This embodiment describes the down regulation of TS by AHLs as a ftmction of time. H630 cells were incubated with medium containing 3-oxo-hexanoyl-L-HSL (3 mM) as described for Example 5. The extraction and analysis was also carried out as described in Example 5 at the indicated times after drug addition.
(§1) A variety of AHLs with acyl-chains containing 4- to 12-carbons (C4-C12) and 3-hydroxy or 3-keto substituents were prepared as described in Example 1 and analyzed for their effect on TS protein expression by Western blotting. Although several of the shorter chain AHLs (C4-C6) can cause loss of TS, the required concentrations are in the mM range. […] The latter observation indicates 3-oxo-C12-HSL has effects on gene expression aside from the down-regulation of TS. In this regard, FIG. 8C provides a photographic representation of the effect of 23 μmol/L 3-oxo-C12-HSL on TS mRNA levels in H630 cells (20 hours of exposure) as evaluated by RT-PCR. […] Microarray analysis of H630 RNA was done using the Affymetrix (Santa Clara, Calif.) HGU133A GeneChip. Microarray data was analyzed using Genetraffic software (Stratagene, La Jolla, Calif.) with the Robust Multichip Analysis method (Lauren et al., (2003) IEEE Trans Nanobioscience; 2:163-70) for measuring probe intensity and scaling. Results for treated and untreated cells were analyzed for significant changes within each experiment (P<0.05) as well as for changes in pooled data from three separate experiments. RNA for RT-PCR or microarray analysis was prepared using an RNAeasy kit from Qiagen (Valencia, Calif.).

[2] = test system: H630 cells; assay: Growth inhibition, cells counted 3 days after addition; format: cell-based, human
[3] = test system: H630 cells; assay: Colony formation assay; conditions: for enhancement of activity by 3-oxo-C12-HSL: colony formation, 23 μM 3-oxo-C12-HSL
[4] = biological target: T1, TS (Homo sapiens, UniProt P04818); assay: TS modulation assay (luciferase mRNA containing TS binding elements) in H630 cells; format: cell-based; conditions: H630 cells treated with IC50 concentration
T1 construct: effects of AHLs on TS and tubulin in H630 cells; endogenous in cells; host or cells: H630 human colon cancer cells
T1 sequence (P04818 whole entry): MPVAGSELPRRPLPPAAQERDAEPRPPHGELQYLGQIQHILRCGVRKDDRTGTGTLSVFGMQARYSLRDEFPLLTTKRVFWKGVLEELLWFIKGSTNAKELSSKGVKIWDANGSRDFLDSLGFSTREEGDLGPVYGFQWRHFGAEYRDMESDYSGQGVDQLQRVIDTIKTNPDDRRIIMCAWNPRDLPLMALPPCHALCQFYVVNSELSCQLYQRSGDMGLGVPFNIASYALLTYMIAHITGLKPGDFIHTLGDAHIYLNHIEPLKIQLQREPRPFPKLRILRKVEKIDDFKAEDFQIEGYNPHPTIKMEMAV

[5] = test system: H630-1 cells; assay: Colony formation assay; format: cell-based, human; conditions: for enhancement of activity by 3-oxo-C12-HSL: colony formation, 8 μM 3-oxo-C12-HSL
[6] = test system: PC-3 (prostate cancer cells); assay: Sulforhodamine-B growth inhibition assay, 5 days; format: cell-based, human; conditions: PC-3 cells, SRB staining
Method: (§2) For growth inhibition assays described in this Example, H630, H630-1 and PC-3 (prostate cancer cells) cells were growth in the presence of HSL analog for 5 days. At the end of day 5, cells were fixed and stained with Sulforhodamine-B (SRB), a protein-staining dye. Excess SRB was removed leaving only dye bound to proteins from cells. Protein-bound SRB was then dissolved in base and quantified by spectrophotometric absorbance. In this assay, the amount of SRB bound to protein correlates with the number of cells present, allowing for the analysis of growth of treated versus untreated samples. The HSL analogs are administered at 10 concentrations, spanning a 5 log range.
(§3) The data points in the graphs of FIGS. 13A-13C represent % control growth at a given HSL analog concentration. IC50 values represent the concentration of HSL analog at which growth of the treated cells is inhibited by 50%. The structure of the tested compounds, designated by number, are as set forth in FIG. 13 from which it can be sent that the phenyl-HSL analogs tested range from C5 (compound 12) to C14 (compound 25). […] This effect decreases as the chain length reaches C14, as indicated by an increase in the IC50 values. […] Specifically, the C10 phenyl analog (compound 20) is equally as active as the 3-oxo-C12 HSL used as a positive control, despite having two fewer carbons in the alkyl chain.

[7] = test system: H630; assay: Sulforhodamine-B growth inhibition assay, 5 days; format: cell-based, human; conditions: H630 cells, SRB staining
Method: as §2, §3

[8] = test system: H630-1; assay: Sulforhodamine-B growth inhibition assay, 5 days; format: cell-based, human; conditions: H630-1 cells, SRB staining
Method: as §2, §3

[9] = test system: NCI-H460; assay: Growth inhibition; format: cell-based, human; conditions: NCI-H460 lung cancer cell line
[10] = test system: tubulin; assay: Western blot of tubulin in H630 cells; format: cell-based, human; conditions: FIG. 8B
Method: Conventional techniques were used to propagate and maintain the H630 and H630-1 cell lines (see, for example Dolnick, et al. (2003) Cancer Biology & Therapy, 2: 364-369; Stephanie, et al. (2001) In: Proceedings AACR, New Orleans, La., pp. 493). For the investigation of effects on TS expression, cells were extracted at 18-20 hours after the addition of AHLs. For Western blot analysis, proteins were extracted and Western blotting was performed by standard methods using blots blocked with 5% nonfat dried milk dissolved in 10 mM Tris-HCl, pH 8.0, 150 mM sodium chloride, 0.05% Tween-20. […] All Western blots were detected using the horseradish peroxidase-based West Pico Dura chemiluminescent substrate (Pierce) and horseradish peroxidase-coupled F(ab′)2 fragments (Jackson ImmunoResearch Laboratories, West Grove, Pa.) as secondary antibodies
A variety of AHLs with acyl-chains containing 4- to 12-carbons (C4-C12) and 3-hydroxy or 3-keto substituents were prepared as described in Example 1 and analyzed for their effect on TS protein expression by Western blotting. […] In this regard, FIG. 8C provides a photographic representation of the effect of 23 μmol/L 3-oxo-C12-HSL on TS mRNA levels in H630 cells (20 hours of exposure) as evaluated by RT-PCR. […]

[11] = test system: TS mRNA; assay: RT-PCR of TS mRNA levels in H630 cells; format: cell-based, human; conditions: 23 μmol/L, 20 hours of exposure
Method: as §1, with “Calif.). […]” for “Calif.).”

[12] = test system: H630-1 cells; assay: Growth inhibition, cells counted 3 days after addition; format: cell-based, human
[13] = test system: MCF-7 cells; assay: Growth inhibition; format: cell-based, human; conditions: MCF-7 breast cancer cell line

CCCCCCCCCCCC(=O)N[C@H]1CCOC1=O [Compound C12-HSL]
down-regulation of TS protein ([1]; at concentrations as high as 100 μM): inactive
IC50 ([2]; FIG. 9B, read-out: IC50 growth inhibition): 1000 µM

CCCCCC(=O)N[C@H]1CCOC1=O (single isomer, unassigned) [(L)-isomer of C6-HSL, N-hexanoyl (L-)-homoserine lactone]
down-regulation of TS protein (activity in words) ([1]; Western blot): active

O=c1[nH]c(=O)n([C@@H]2O[C@H](CO)[C@@H](O)[C@H]2O)cc1F [FUrd, 5-fluorouridine]
enhancement of activity by 3-oxo-C12-HSL ([3]; H630 cells): no enhancement

CCCCCC(=O)NC1CCOC1=O (racemic) [C6-HSL racemic mix, hexanoyl-homoserine lactone]
down-regulation of TS protein (activity in words) ([1]; Western blot): less active

CN(Cc1cnc2nc(N)nc(N)c2n1)c1ccc(C(=O)N[C@@H](CCC(=O)O)C(=O)O)cc1 [methotrexate]
enhancement of activity by 3-oxo-C12-HSL ([3]; H630 cells): not

CCCC(=O)CC(=O)N[C@H]1CCOC1=O [Compound 3-oxo-C6-HSL, 3-oxo-N-hexanoyl-(L-)homoserine lactone]
TS modulatory activity (luminescence) [4]: potent modulator of TS
time for which the TS reduction is maintained ([1]; 3 mM): approximately 24 hours
reduction of TS levels ([1]; 3 mM, after 16 hours): approximately 50%

CCCCCC(=O)NC1CCOC1=O (stereo not shown) [C6-(D)—HSL]
down-regulation of TS protein (activity in words) ([1]; Western blot): inactive

O=c1[nH]c(=O)n([C@H]2C[C@H](O)[C@@H](CO)O2)cc1F [FUdR, fluorodeoxyuridine]
enhancement of activity by 3-oxo-C12-HSL ([3]; H630 cells): enhancement

CC(=O)O[C@H]1C(=O)[C@@]2(C)[C@H]([C@H](OC(=O)c3ccccc3)[C@]3(O)C[C@H](OC(=O)[C@H](O)[C@@H](NC(=O)c4ccccc4)c4ccccc4)C(C)=C1C3(C)C)[C@]1(OC(C)=O)CO[C@@H]1C[C@@H]2O [taxol]
IC50 ([5]; Homo sapiens, FIG. 11E): 0.02 µM
enhancement of activity by 3-oxo-C12-HSL [5]: some enhancement
enhancement of activity by 3-oxo-C12-HSL ([3]; H630 cells): some enhancement
IC50 ([3]; Homo sapiens, NCI-H630, read-out: IC50 colony formation): 0.006 µM

CCCCCCCCCC(=O)CC(=O)N[C@H]1CCOC1=O [3-oxo-C12-HSL, 3-oxo-C12 homoserine lactone]
IC50 [6]: 10 µM
IC50 [7]: 35 µM
IC50 [8]: 12 µM
IC50 [9]: 35 µM
effect on tubulin with increasing concentrations [10]: appears to decrease
TS mRNA levels [11]: unaffected
TS modulatory activity (luminescence) [4]: no detectable TS modulatory activity
IC50 [12]: 8 µM
IC50 ([3]; read-out: IC50 for inhibition of cell growth in a clonogenic assay, H630 cells, FIG. 9B solid circles): ~10 µM
IC50 [13]: 16 µM
concentration needed to reduce the amount of TS ([1]; FIG. 8B): 1 to 10 µM
lowest concentration causing down-regulation of TS ([1]; Western blot, FIG. 8B): 10 µM
IC50 ([2]; 3 days): 23 µM
growth inhibition, relative activity of stereoisomer ([2]; FIG. 9B): more active than the racemic mixture

CCCC(=O)CC(=O)OCC [3-(oxo)-ethylhexanoate, reference compound]
down-regulation of TS protein (activity in words) ([1]; Western blot): inactive

O=c1[nH]cc(F)c(=O)[nH]1 [FU, 5-fluorouracil]
enhancement of activity by 3-oxo-C12-HSL [5]: No enhancement
IC50 ([3]; Homo sapiens, NCI-H630, 336 h, read-out: apparent IC50 of FU, FU alone): 1 µM

Cc1nc2ccc(CN(C)c3ccc(C(=O)N[C@@H](CCC(=O)O)C(=O)O)s3)cc2c(=O)[nH]1 [tomudex]
enhancement of activity by 3-oxo-C12-HSL ([3]; H630 cells): enhancement

COc1cccc2c1C(=O)c1c(O)c3c(c(O)c1C2=O)C[C@@](O)(C(=O)CO)C[C@@H]3O[C@H]1C[C@H](N)[C@H](O)[C@H](C)O1 [adriamycin]
enhancement of activity by 3-oxo-C12-HSL ([3]; H630 cells): not
